A short description of data set [1]: Body weight change of MOLM-13 tumor-bearing NOD-SCID mice, Compound A and azacitidine (Test Example 1). It counts as in vivo, mouse. The settings on record: azacitidine 4 mg/kg iv. The method, then:
(§1) Human acute myeloid leukemia cell line MOLM-13 cells were suspended to 5×10^7 cells/mL using phosphate-buffered saline. 0.1 mL of the prepared cell suspension was subcutaneously transplanted to each NOD-SCID mouse (male, 6 weeks old). On 6 days after the tumor inoculation, after confirmation that the average tumor volume exceeded 100 mm^3, the mice were grouped on the basis of their tumor volume values. 25 mg/kg or 50 mg/kg Compound A was orally administered by forced administration to the mice. 2.5 mg/kg or 4 mg/kg azacitidine was intravenously administered to the tails of the mice. For a combined use group, 25 mg/kg or 50 mg/kg Compound A and 2.5 mg/kg or 4 mg/kg azacitidine were administered sequentially. The administration of Compound A was performed once a day for 5 consecutive days (6 to 10 days after the tumor inoculation) from the date of grouping (6 days after the tumor inoculation), and after a 2-day drug holiday, performed once a day for 4 consecutive days (13 to 16 days after the tumor inoculation). The administration of azacitidine was performed once a day for 5 consecutive days (6 to 10 days after the tumor inoculation) from the date of grouping (6 days after the tumor inoculation). The major axis (mm) and minor axis (mm) of tumor were measured over time using an electronic digital caliper. Tumor growth inhibition % (TGI %) on the date of assessment (17 days after the tumor inoculation) calculated according to calculation formula (4) shown below was used in evaluation. Also, the body weights were measured over time using an automatic balance for small animals, and body weight change % was calculated according to calculation formula (5) shown below to study the influence of drug administration on the body weights. In addition, the results of the last body weight measurement were used in dose calculation.
(§2) Body weight change (%)=Average body weight change % of the individuals (5)
(§3) Body weight change % of each individual=[…]
(§4) BWn: Body weight on day n
(§5) BWs: Body weight on the start day of administration

Data set [2] relates to human acute myeloid leukemia cell line MOLM-13. Nature of the data set: In vivo effect of combined use of Compound A and azacitidine on subcutaneous MOLM-13 tumors in NOD-SCID mice (Test Example 1). Particulars: azacitidine 4 mg/kg iv. The method, then:
(§6) Human acute myeloid leukemia cell line MOLM-13 cells were suspended to 5×10^7 cells/mL using phosphate-buffered saline. 0.1 mL of the prepared cell suspension was subcutaneously transplanted to each NOD-SCID mouse (male, 6 weeks old). […] The major axis (mm) and minor axis (mm) of tumor were measured over time using an electronic digital caliper. […] In addition, the results of the last body weight measurement were used in dose calculation. […] A: Average tumor volume of the compound-administered group on the date of assessment (*) B: Average tumor volume of the untreated control group on the date of assessment (*) *: The tumor volume was calculated according to ½×[Major axis of tumor]×[Minor axis of tumor]×[Minor axis of tumor].

Data set [3] has the same test system. Nature of the data set: In vivo effect of combined use of Compound A and decitabine on subcutaneous MOLM-13 tumors in NOD-SCID mice (Test Example 2). Particulars: for TGI (%): 17 days after tumor inoculation. The method, then:
as §6, with “old). […] For a combined use group, 25 mg/kg or 50 mg/kg Compound A and 1 mg/kg or 50 mg/kg decitabine were administered sequentially.” for “old).”

Data set [4] is described as follows: Body weight change of MOLM-13 tumor-bearing NOD-SCID mice, Compound A and decitabine (Test Example 2). Format: in vivo, mouse. The method, then:
as §1, with “the mice. 1 mg/kg or” for “the mice. 2.5 mg/kg or”, “mg/kg or 50 mg/kg decitabine” for “mg/kg or 4 mg/kg azacitidine”, “50 mg/kg decitabine was intravenously” for “4 mg/kg azacitidine was intravenously”, “A and 1 mg/kg or” for “A and 2.5 mg/kg or”, “50 mg/kg decitabine were administered” for “4 mg/kg azacitidine were administered”, “administration of decitabine to the 50 mg/kg group was performed at the date of grouping (6 days after the tumor inoculation), and the administration thereof to the 1 mg/kg group was performed” for “administration of azacitidine was performed”
as §2, §3, §4, §5

The mark [5] stands for this setting: decitabine 1 mg/kg iv, day 6 after tumor inoculation.
The mark [6] stands for this setting: decitabine 1 mg/kg iv, day 8 after tumor inoculation.
Where [7] appears, read: decitabine 1 mg/kg iv, day 10 after tumor inoculation.
The mark [8] stands for this setting: decitabine 1 mg/kg iv, day 13 after tumor inoculation.
[9] abbreviates: decitabine 1 mg/kg iv, day 15 after tumor inoculation.
Where [10] appears, read: decitabine 1 mg/kg iv, day 17 after tumor inoculation.
Setting [11] is: decitabine 50 mg/kg iv, day 6 after tumor inoculation.
Setting [12] is: decitabine 50 mg/kg iv, day 8 after tumor inoculation.
Where [13] appears, read: decitabine 50 mg/kg iv, day 10 after tumor inoculation.
Setting [14] is: decitabine 50 mg/kg iv, day 13 after tumor inoculation.
Where [15] appears, read: decitabine 50 mg/kg iv, day 15 after tumor inoculation.
Where [16] appears, read: decitabine 50 mg/kg iv, day 17 after tumor inoculation.

With `Nc1ncn([C@@H]2O[C@H](CO)[C@@H](O)[C@H]2O)c(=O)n1` [Azacitidine, 4-amino-1-β-D-ribofuranosyl-1,3,5-triazin-2(1H)-one, reference compound], the “Body weight change (%), average” value in data set [1] (day 6 after tumor inoculation) is reported as 0.0%; in data set [1] (day 8 after tumor inoculation) it was −0.2%; in data set [1] (day 10 after tumor inoculation), −0.4%; in data set [1] (day 13 after tumor inoculation), 5.4%; in data set [1] (day 15 after tumor inoculation) it was 8.8%; in data set [1] (day 17 after tumor inoculation), 12.1%. Moreover, the “TGI (%)” value in data set [2] (17 days after tumor inoculation) is listed as 28%. In addition, the “Estimated tumor volume, average” value is listed as 115 mm^3 in data set [2] (day 6 after tumor inoculation); 226 mm^3 in data set [2] (day 8 after tumor inoculation); 334 mm^3 in data set [2] (day 10 after tumor inoculation); 637 mm^3 in data set [2] (day 13 after tumor inoculation); 1359 mm^3 in data set [2] (day 15 after tumor inoculation); 1855 mm^3 in data set [2] (day 17 after tumor inoculation).
As for `Nc1ncn([C@H]2C[C@H](O)[C@@H](CO)O2)c(=O)n1` [Decitabine, 4-amino-1-(2-deoxy-β-D-erythro-pentofuranosyl)-1,3,5-triazin-2(1H)-one, reference compound], the “TGI (%)” value in data set [3] (decitabine 1 mg/kg iv) was 38%; in data set [3] (decitabine 50 mg/kg iv), 14%. For the same compound, the “Estimated tumor volume, average” value in data set [3] (setting [5]) was 144 mm^3; in data set [3] (setting [6]) it was 228 mm^3; in data set [3] (setting [7]) it was 327 mm^3; in data set [3] (setting [8]), 585 mm^3; in data set [3] (setting [9]), 901 mm^3; in data set [3] (setting [10]), 1441 mm^3. The “Estimated tumor volume, average” value is reported as 145 mm^3 in data set [3] (setting [11]); 206 mm^3 in data set [3] (setting [12]); 365 mm^3 in data set [3] (setting [13]); 732 mm^3 in data set [3] (setting [14]); 1175 mm^3 in data set [3] (setting [15]); 1997 mm^3 in data set [3] (setting [16]). In addition, the “Body weight change (%), average” value is given as 0.0% in data set [4] (setting [5]); 2.6% in data set [4] (setting [6]); 2.5% in data set [4] (setting [7]); 7.8% in data set [4] (setting [8]); 11.5% in data set [4] (setting [9]); 14.3% in data set [4] (setting [10]). In addition, the “Body weight change (%), average” value in data set [4] (setting [11]) is given as 0.0%; in data set [4] (setting [12]), 3.7%; in data set [4] (setting [13]), 6.0%; in data set [4] (setting [14]), 9.6%; in data set [4] (setting [15]), 10.3%; in data set [4] (setting [16]) it was 14.6%.

The values above are taken from US20190240210A1, “Treatment Method by Combined Use of MDM2 Inhibitor and DNA Methyltransferase Inhibitor” (DAIICHI SANKYO COMPANY, LIMITED, priority 2016, published 2019).
